Results on 31 compounds are retold here after patent US20150087673A1, “METHODS FOR USING AND BIOMARKERS FOR AMPK-ACTIVATING COMPOUNDS” (RIGEL PHARMACEUTICALS, INC., priority 2013, published 2015).

Where only a bound is given, the exact number is not on record here.

Broadly, the EC50 is the concentration giving half of the maximal effect. A low value points to a more potent agent.

This assay deals with AMPK. Put plainly: AMPK activation assay (enzyme-linked immunosorbent assay). The assay is classed as cell-based. The protocol:
Compounds were assayed for their ability to activate AMPK using an enzyme-linked immunosorbent assay. Reagents and procedures for measuring AMPK activation are well known and kits for AMPK activation assays are commercially available.
In the case of `COc1ccc(N2CCC(NC(=O)c3ccc(C(=O)N4CCC(Oc5ccc(C#N)cc5)CC4)nc3)CC2)cc1` [Compound 423, 6-(4-(4-cyanophenoxy)piperidine-1-carbonyl)-N-(1-(4-methoxyphenyl)piperidin-4-yl)nicotinamide], the EC50 was below 500 nM.
`O=C(NC1CCN(C(=O)C2CCCCC2)CC1)c1ccc(C(=O)N2CCN(Cc3ccc(F)cc3)CC2)cn1` [Compound 7, N-(1-(cyclohexanecarbonyl)piperidin-4-yl)-5-(4-(4-fluorobenzyl)piperazine-1-carbonyl)picolinamide] came in with a 50% effective concentration (EC50) below 500 nM.
The same measure for `CN1CCN(c2ccc(C(=O)C3CCN(C(=O)c4ccc(C(=O)NC5CCN(Cc6ccc(OC(F)(F)F)cc6)CC5)cn4)CC3)cc2)CC1` [Compound 244, 6-(4-(4-(4-methylpiperazin-1-yl)benzoyl)piperidine-1-carbonyl)-N-(1-(4-(trifluoromethoxy)benzyl)piperidin-4-yl)nicotinamide]: 5000 to 10000 nM; for `N#Cc1ccc(CN2CCC(NC(=O)c3ccc(C(=O)N4CCC(Oc5ccc(F)c(F)c5)CC4)cn3)CC2)cc1` [Compound 158, N-(1-(4-cyanobenzyl)piperidin-4-yl)-5-(4-(3,4-difluorophenoxy)piperidine-1-carbonyl)picolinamide]: below 500 nM; for `N#Cc1ccc(CN2CCC(NC(=O)c3ccc(C(=O)N4CCC(Oc5ccncc5)CC4)cn3)CC2)cc1` [Compound 269, N-(1-(4-cyanobenzyl)piperidin-4-yl)-5-(4-(pyridin-4-yloxy)piperidine-1-carbonyl)picolinamide]: below 500 nM.
The value for `N#Cc1ccc(CC2CCN(C(=O)c3ccc(C(=O)NC4CCN(Cc5ccc(C#N)cc5)CC4)nc3)CC2)cc1` [Compound 128, N-(1-(4-cyanobenzyl)piperidin-4-yl)-5-(4-(4-cyanobenzyl)piperidine-1-carbonyl)picolinamide] was below 500 nM; that for `COc1ccc(OC2CCN(C(=O)c3ccc(C(=O)NC4CCN(Cc5ccc(F)cc5)CC4)nc3)CC2)cc1` [Compound 183, N-(1-(4-fluorobenzyl)piperidin-4-yl)-5-(4-(4-methoxyphenoxy)piperidine-1-carbonyl)picolinamide] was below 500 nM; that for `N#Cc1ccc(OC2CCN(C(=O)c3ccc(C(=O)NC4CCN(Cc5cocn5)CC4)cn3)CC2)cc1` [Compound 355, 6-(4-(4-cyanophenoxy)piperidine-1-carbonyl)-N-(1-(oxazol-4-ylmethyl)piperidin-4-yl)nicotinamide] was above 10000 nM.
Take `COc1ccc(OC2CCN(C(=O)c3ccc(C(=O)NC4CCN(Cc5ccc(C#N)cc5)CC4)cn3)CC2)c(N)c1` [Compound 384, 6-(4-(2-amino-4-methoxyphenoxy)piperidine-1-carbonyl)-N-(1-(4-cyanobenzyl)piperidin-4-yl)nicotinamide]: the EC50 lay within 500 to 1000 nM.
Compound `COc1ccc(C(=O)C2CCN(C(=O)c3ccc(C(=O)NC4CCN(Cc5ccc(F)cc5)CC4)nc3)CC2)cc1` [Compound 178, N-(1-(4-fluorobenzyl)piperidin-4-yl)-5-(4-(4-methoxybenzoyl)piperidine-1-carbonyl)picolinamide] showed an EC50 below 500 nM.
The value for `N#Cc1ccc(OC2CCN(C(=O)c3ccc(C(=O)NC4CCN(Cc5nccs5)CC4)cn3)CC2)cc1` [Compound 356, 6-(4-(4-cyanophenoxy)piperidine-1-carbonyl)-N-(1-(thiazol-2-ylmethyl)piperidin-4-yl)nicotinamide] was below 500 nM; that for `CC(=O)Nc1cccc(OC2CCN(C(=O)c3ccc(C(=O)NC4CCN(Cc5cccc(OC(F)(F)F)c5)CC4)cn3)CC2)c1` [Compound 429, 6-(4-(3-acetamidophenoxy)piperidine-1-carbonyl)-N-(1-(3-(trifluoromethoxy)benzyl)piperidin-4-yl)nicotinamide] was 500 to 1000 nM.
The value for `O=C(NC1CCN(Cc2ccc(OC(F)(F)F)cc2)CC1)c1ccc(C(=O)N2CCC(Oc3cccc(NC(=O)C4CC4)c3)CC2)nc1` [Compound 438, 6-(4-(3-(cyclopropanecarboxamido)phenoxy)piperidine-1-carbonyl)-N-(1-(4-(trifluoromethoxy)benzyl)piperidin-4-yl)nicotinamide] was below 500 nM; that for `O=C(N[C@@H]1CCN(Cc2ccncc2)C[C@@H]1F)c1ccc(C(=O)N2CCN(Cc3ccc(F)cc3)CC2)cn1` (relative stereo) [Compound 104, N-(cis-3-fluoro-1-(pyridin-4-ylmethyl)piperidin-4-yl)-5-(4-(4-fluorobenzyl)piperazine-1-carbonyl)picolinamide] was below 500 nM.
In the case of `O=C(NC1CCN(Cc2ccccc2)CC1)c1ccc(Nc2cccc(-c3ccccc3)c2)cn1` [Compound 114, N-(1-benzylpiperidin-4-yl)-5-(biphenyl-3-ylamino)picolinamide], the EC50 was in the range of 1000 to 5000 nM.
In the case of `CS(=O)(=O)c1ccc(OC2CCN(C(=O)c3ccc(C(=O)NC4CCN(Cc5cc(F)cc(F)c5)CC4)nc3)CC2)cc1` [Compound 203, N-(1-(3,5-difluorobenzyl)piperidin-4-yl)-5-(4-(4-(methylsulfonyl)phenoxy)piperidine-1-carbonyl)picolinamide], the EC50 is below 500 nM.
The value for `CN1CCN(c2ccc(C(=O)C3CCN(C(=O)c4ccc(C(=O)NC5CCN(Cc6ccc(C#N)cc6)CC5)cn4)CC3)cc2)CC1` [Compound 243, N-(1-(4-cyanobenzyl)piperidin-4-yl)-6-(4-(4-(4-methylpiperazin-1-yl)benzoyl)piperidine-1-carbonyl)nicotinamide] was below 500 nM; that for `N#Cc1ccc(OC2CCN(C(=O)c3ccc(C(=O)NC4CCN(Cc5cc(F)cc(F)c5)CC4)nc3)CC2)cc1` [Compound 289, 5-(4-(4-cyanophenoxy)piperidine-1-carbonyl)-N-(1-(3,5-difluorobenzyl)piperidin-4-yl)picolinamide] was below 500 nM; that for `Cc1ccc(OC2CCN(C(=O)c3ccc(C(=O)NC4CCN(Cc5cc(F)cc(F)c5)CC4)nc3)CC2)cc1` [Compound 293, N-(1-(3,5-difluorobenzyl)piperidin-4-yl)-5-(4-(p-tolyloxy)piperidine-1-carbonyl)picolinamide] was below 500 nM.
Regarding `CC(=O)c1ccc(OC2CCN(C(=O)c3ccc(C(=O)NC4CCN(Cc5ccc(C#N)cc5)CC4)nn3)CC2)cc1` [Compound 437, 6-(4-(4-acetylphenoxy)piperidine-1-carbonyl)-N-(1-(4-cyanobenzyl)piperidin-4-yl)pyridazine-3-carboxamide], the EC50 was below 500 nM.
The same measure for `COc1ccc(C(=O)C2CCN(C(=O)c3ccc(C(=O)N[C@H]4CC[C@@H](Oc5ccc(C(F)(F)F)cc5)CC4)nc3)CC2)cc1` [Compound 192, 5-(4-(4-methoxybenzoyl)piperidine-1-carbonyl)-N-((cis)-4-(4-(trifluoromethyl)phenoxy)cyclohexyl) picolinamide]: below 500 nM; for `CS(=O)(=O)Nc1ccc(CN2CCC(NC(=O)c3ccc(C(=O)N4CCC(C(=O)c5ccc(F)cc5F)CC4)nc3)CC2)cc1` [Compound 216, 6-(4-(2,4-difluorobenzoyl)piperidine-1-carbonyl)-N-(1-(4-(methylsulfonamido)benzyl)piperidin-4-yl)nicotinamide]: above 10000 nM.
The value for `N#Cc1ccc(CN2CCC(NC(=O)c3ccc(C(=O)NCCOc4ccc(F)cc4)cn3)CC2)cc1` [Compound 149, N2-(1-(4-cyanobenzyl)piperidin-4-yl)-N5-(2-(4-fluorophenoxy)ethyl)pyridine-2,5-dicarboxamide] was 500 to 1000 nM; that for `CS(=O)(=O)c1ccc(C(=O)C2CCN(C(=O)c3ccc(C(=O)NC4CCN(Cc5ccc(C#N)cc5)CC4)cn3)CC2)cc1` [Compound 221, N-(1-(4-cyanobenzyl)piperidin-4-yl)-6-(4-(4-(methylsulfonyl)benzoyl)piperidine-1-carbonyl)nicotinamide] was 1000 to 5000 nM.
The same measure for `O=C(Nc1ccc(OCc2ccccc2)cc1)c1ccc(C(=O)N2CCN(Cc3ccc(F)cc3)CC2)cn1` [Compound 27, N-(4-benzyloxyphenyl)-5-(4-(4-fluorobenzyl)piperazine-1-carbonyl)picolinamide]: 500 to 1000 nM.
`CS(=O)(=O)c1ccc(Oc2ccc(NC(=O)c3ccc(C(=O)N4CCC(C(=O)c5ccc(F)cc5F)CC4)nc3)cn2)cc1` [Compound 466, 6-(4-(2,4-difluorobenzoyl)piperidine-1-carbonyl)-N-(6-(4-(methylsulfonyl)phenoxy)pyridin-3-yl)nicotinamide] came in with an EC50 below 500 nM.
The compound `COc1ccc(C(=O)C2CCN(C(=O)c3ccc(C(=O)NC4CCN(Cc5ccc(C#N)cc5)CC4(F)F)cn3)CC2)cc1` (stereo not shown) [Compound 498, N-(1-(4-cyanobenzyl)-3,3-difluoropiperidin-4-yl)-6-(4-(4-methoxybenzoyl)piperidine-1-carbonyl)nicotinamide] returned an EC50 below 500 nM.
The same measure for `O=C(Nc1ccc(Cc2ccccc2)cc1)c1ccc(C(=O)N2CCN(Cc3ccc(F)cc3)CC2)cn1` [Compound 10, N-(4-benzylphenyl)-5-(4-(4-fluorobenzyl)piperazine-1-carbonyl)picolinamide]: below 500 nM.
The value for `COc1ccc(C(=O)C2CCN(C(=O)c3ccc(C(=O)Nc4ccc(Oc5ccc(C#N)cc5)nc4C)cn3)CC2)cc1` [Compound 478, N-(6-(4-cyanophenoxy)-2-methylpyridin-3-yl)-6-(4-(4-methoxybenzoyl)piperidine-1-carbonyl)nicotinamide] was below 500 nM; that for `N#Cc1ccc(CNC(=O)c2ccc(NC(=O)c3ccc(C(=O)N4CCN(Cc5ccc(F)cc5)CC4)cn3)cc2)cc1` [Compound 47, N-(4-(4-cyanobenzylcarbamoyl)phenyl)-5-(4-(4-fluorobenzyl)piperazine-1-carbonyl)picolinamide] was below 500 nM; that for `CS(=O)(=O)c1ccc(OC2CCN(C(=O)c3ccc(C(=O)NC4CCN(Cc5cccc(OC(F)(F)F)c5)CC4)cn3)CC2)cc1` [Compound 239, 6-(4-(4-(methylsulfonyl)phenoxy)piperidine-1-carbonyl)-N-(1-(3-(trifluoromethoxy)benzyl)piperidin-4-yl)nicotinamide] was 1000 to 5000 nM.
